In series [1] the target is T1, synthetic peptide fragment corresponding to residues 11 to 25 of the Alzheimer's Aβ peptide (Homo sapiens, UniProt P05067).
T1 construct: synthetic peptide fragment corresponding to residues 11 to 25 of the Alzheimer's Aβ peptide; host or cells: chemical synthesis (synthetic peptide)
Nature of the series: Thioflavin T fluorescence assay of Aβ peptide fragment aggregation into amyloid fibrils. Format: biochemical. As for the experimental part:
The capacity of Peptide X (SEQ ID NO:2) to inhibit the aggregation of a synthetic peptide fragment corresponding to residues 11 to 25 of the Alzheimer's Aβ peptide into amyloid fibrils was determined quantitatively using a standard assay based on the amyloid-dependent fluorescence of thioflavin T at 482 nm (Levine, 1993).
Peptide X (SEQ ID NO:2) was dissolved in water to a concentration of 10 mM (about 10 mg/ml). Alzheimer's Aβ peptide fragment, at a concentration of 50 μM (about 0.1 mg/ml) in 50 mM sodium acetate buffer (pH 5.0), was incubated at 25° C. in the absence or presence of Peptide X at concentrations ranging from 100 μM to 1 mM; the aggregation of the Aβ peptide fragment into insoluble β-fibres in the solutions was determined quantitatively after 20 minutes by measuring the fluorescence of […] added thioflavin T at 482 nm using an excitation wavelength of 440 nm.

Series [2] is described as follows: Solubility in aqueous solutions. Format: physicochemical. To be noted: over a wide range of pH values, completely soluble. The text has this:
The two positively charged arginine side chains assist the peptide to penetrate cell membranes and the blood-brain barrier by making electrostatic interactions with the negatively charged phosphate head groups of their constituent phospholipid molecules, resulting in the formation of inverted micelles which carry the peptide molecules across these membranes.

For the next series, the system named is Aβ peptide. Nature of the series: Inhibition of Aβ peptide aggregation into β-sheets (method not described). It is filed as biochemical.

The text below walks through data of patent US7125838B1, “Peptides containing N-substituted L-amino acids for preventing β-strand association” (Senexis Limited, priority 1999, dated 2006).

Non-standard residues stand in square brackets, D forms with d. Residues, ends and D or L forms follow the SMILES beside them. NMeR = CN[C@@H](CCCNC(=N)N)C(=O)O; NMeF = CN[C@@H](Cc1ccccc1)C(=O)O; NMeL = CN[C@@H](CC(C)C)C(=O)O

The term inhibition denotes the relative decrease from the control value, in per cent. Read a high inhibition as strong suppression. By solubility is commonly meant how much of the substance goes into solution per volume. For the compound `CC(=O)N[C@@H](CCCNC(=N)N)C(=O)N(C)[C@@H](CCCNC(=N)N)C(=O)N[C@@H](CC(C)C)C(=O)N(C)[C@@H](CC(C)C)C(=O)N[C@@H](Cc1ccccc1)C(=O)N(C)[C@@H](Cc1ccccc1)C(N)=O` [Peptide X, Nα-acetyl-(L-arginine)-(Nα-methyl-L-arginine)-(L-leucine)-(Nα-methyl-L-leucine)-(L-phenylalanine)-(Nα-methyl-L-phenylalanine)-NH2] (Ac-R[NMeR]L[NMeL]F[NMeF]-NH2), the inhibition at 100 µM in series [1] (100 μM Peptide X, 50 μM Aβ fragment, 50 mM sodium acetate pH 5.0, 25° C., 20 minutes, thioflavin T at 482 nm) was > 70%. Moreover, the “disaggregation of preformed amyloid fibrils” value in series [1] (Peptide X added to the Aβ peptide fragment after incubation) was “able to disaggregate preformed amyloid fibrils”. Besides, the “reduction in Alzheimer's Aβ peptide aggregation (FIG. 6)” value in series [1] (Peptide X concentration of 100 μM) is 70%. For the same compound, the solubility is ≥ 10 mM in series [2] and ≥ 10000 µg/mL in series [2] (approximate equivalent of 10 mM).
Consider “(L-arginine)-(L-lysine)-(L-valine)-(Nα-methyl-L-phenylalanine)-(L-tyrosine)-(L-threonine)-(L-tryptophan) [Arg-Lys-Val-mePhe-Tyr-Thr-Trp]”, for which, in the series with Aβ peptide, the “inhibiting Aβ peptide aggregation into β-sheets” value was “effective”.
